# Measured values taken from patent US11427588B2, “Compositions and methods for treating neurodegenerative diseases and cardiomyopathy” (THE REGENTS OF THE UNIVERSITY OF CALIFORNIA, priority 2013, dated 2022).
# Legend:
# SH-SY5Y = assay type: in vitro ADME; settings: not told
# Description: We included negative control analogs of Kinetin which prevent metabolism.
# [1] = system: SH-SY5Y cells with PINK1-silencing shRNA; assay: H2O2 induced apoptosis, Annexin V / PI FACS assay, PINK1-silencing shRNA; assay type: cell-based, human; settings: PINK1-silencing shRNA lentivirus; 50 μM 96 hours, 400 μM H2O2
# Protocol: Apoptosis assays and PINK1 shRNA: SH-SY5Y cells (ATCC) were cultured in 1:1 mix of F12K and DMEM supplemented with 20% FBS. PINK1 shRNA lentivirus were produced using a pLKO.1 based shRNA (Sigma) by contransfection with Δ8.9 and pMGD2 vectors in HEK293T cells. SH-SY5Y cells were infected with lentivirus followed by selection with puromycin ([…]). The indicated cells were plated in 6-well plates at about 500,000 cells/well, pretreated with 50 μM of the indicated drug or DMSO for 96 hours followed by 400 μM H2O2 treatment. Subsequently, cells were stained with Annexin V-FITC and PI and analyzed (FACS Diva) on a FACS LSRII Cytometer ([…]) Apoptosis was calculated as the difference between H2O2 treated samples and the respective control.
# Overexpression of PINK1 in neuronal cells (e.g. dopaminergic (DA)) promotes survival in response to oxidative stress and other mitochondrial toxins^7. Before testing the effects of kinetin on apoptosis, we treated DA neurons with 50 μM of either kinetin or adenine and measured cell density after 10 days. […] SH-SY5Y cells were treated with 50 μM kinetin, adenine or DMSO for 96 hours, followed by 400 μM H2O2 treatment for additional 24 hours. Using a cytometry-based FACS assay involving cellular annexin V and propidium iodide staining, we determined the percentage of apoptotic cells after treatment with DMSO, adenine or kinetin.
# HeLa cells = assay: Parkin recruitment to depolarized mitochondria in HeLa cells, PINK1 form not stated; assay type: cell-based
# Protocol: Parkin phosphorylation and mitochondrial translocation assay: HeLa cells were grown in DMEM supplemented with 10% FBS. Log phase cells were plated in 24 well plates with glass coverslips (Mattek) pretreated with fibronectin. Cells were pretreated with 50 μM of the indicated compound, followed by transfection with MitoGFP, mCherry Parkin, and full length PINK1FLAG3 in a 1:4:2 ratio using Fugene 6 (Promega). Fields of cells were selected by expression of MitoGFP (6 fields/well-3 wells/condition) and imaged at five-minute intervals following depolarization with 5 μM CCCP. Quantification was performed according to published protocols^3 and by creation of a Matlab based script.
# Our ability to enhance PINK1 activity in-vitro using KTP led us to investigate means by which to achieve enhanced activity in cells expressing PINK1. […] We treated cells with either kinetin or adenine (FIG. 2A) and measured Parkin localization following mitochondrial depolarization with CCCP (FIG. 2B). HeLa cells, which have low levels of endogenous PINK1 and PARKIN, were transfected with wildtype or PINK1^G309D, mCherryParkin, and mitoGFP. After 48 hours of incubation with 25 μM adenine, kinetin or equivalent DMSO, we imaged CCCP-mediated depolarization of mitochondria (FIGS. 2C, 2D) and calculated the percentage of GFP labelled mitochondria with mCherryParkin associated (FIG. 2E). […]
# PINK1wt mice = assay: Induced myocardial infarction model; assay type: in vivo; settings: two weeks dosing
# Protocol: Utilizing mice dosed with kinetin, adenine or vehicle for two weeks, we induced myocardial infarction by ligating the left anterior descending artery at the level of the left atrial appendage (Wang et al., 2006) or sham surgery. Following infarct for 24 or 72 hours, we sacrificed the mice and analyzed the heart by TUNEL staining as cardiomyocytes are susceptible to cell death following infarct. […] These experiments replicate our results in neurons in which kinetin treatment will block apoptosis in response to a number of cellular stressors.
# [2] = system: PINK1wt HL-1 cells or cardiomyocytes derived from PINK1wt mice; assay: Apoptosis of cardiomyocytes after mitochondrial toxins (caspase 3/7, TUNEL, Annexin V); assay type: cell-based; settings: 25 μM, versus control compounds or PINK1 knockdown or −/− cells
# Description: Kinetin mediated PINK1 activity amplification was characterized using a variety of cell lines and primary cells. The HL-1 cell line, an established cardiomyocyte cell line that retains characteristic properties of differentiated cardiac tissue (Claycomb et al., 1998) as well as freshly isolated cardiomyocytes from PINK1wt or PINK1−/− mice. Infected HL-1 cells with a lentivirus expressing shRNA targeting PINK1, were developed to generate a PINK1 knockdown control. To analyze the amplification of PINK1 kinase activity we analyzed the phosphorylation level of Bcl-xL, Mfn2, and Parkin following treatment of PINK1wt and PINK1 knockdown or −/− cell lines with DMSO or 25 μM adenine, kinetin or 9-methyl kinetin (9MK negative control) and fCCCP for three to twenty-four hours following published protocols (Arena et al., 2013; Chen and Dorn, 2013; Kondapalli et al., 2012). […] Accordingly, PINK1wt expressing cells see an increase in PINK1 dependent phosphorylation, but not in those cells where PINK1 has been depleted.
# The amount of early apoptosis was measured using caspase 3/7 cleavage activity and later stage apoptosis by measuring the number of Terminal deoxynucleotidyl transferase dUTP nick end labeling (TUNEL) positive cells and Annexin V binding by FACS analysis following treatment with mitochondrial toxins. […]
compound,measurement,setting,value
c1coc(CNc2ncnc3[nH]cnc23)c1 [kinetin],membrane impermeable metabolite after incubation,SH-SY5Y,presence of a membrane impermeable metabolite
same,total amount of apoptotic cells,[1],no kinetin effect
same,Parkin recruitment to CCCP depolarized mitochondria,HeLa cells,accelerates
same,TUNEL positive cells in the peri-infarct area,PINK1wt mice; 24 or 72 hours after infarct,significant decrease in TUNEL positive cells
same,scar size and level of collagen deposition,PINK1wt mice; post-infarct,significant decrease in the scar size and the level of collagen deposition
same,apoptosis levels,[2],significantly lower levels
